Measured values: paper PMC12064818, “A general assay platform to study protein pharmacology using ligand-dependent structural dynamics” (Nature Communications, 2025)
Like-named read-outs stand apart in the source and are kept apart here.

How the values were obtained:
[1] = target: T1, FLuc-C-HiBiT (firefly luciferase) (Photinus pyralis, UniProt P08659, form not given/L550V); experiment: Firefly luciferase (FLuc) enzymatic luminescence assay, FLuc-C-HiBiT; type: biochemical; conditions: FLuc-C-HiBiT qHTS, FLuc enzymatic assay; for IC50: read-out: IC50, FLuc E
T1 sequence (P08659 2-550 L550V, form open): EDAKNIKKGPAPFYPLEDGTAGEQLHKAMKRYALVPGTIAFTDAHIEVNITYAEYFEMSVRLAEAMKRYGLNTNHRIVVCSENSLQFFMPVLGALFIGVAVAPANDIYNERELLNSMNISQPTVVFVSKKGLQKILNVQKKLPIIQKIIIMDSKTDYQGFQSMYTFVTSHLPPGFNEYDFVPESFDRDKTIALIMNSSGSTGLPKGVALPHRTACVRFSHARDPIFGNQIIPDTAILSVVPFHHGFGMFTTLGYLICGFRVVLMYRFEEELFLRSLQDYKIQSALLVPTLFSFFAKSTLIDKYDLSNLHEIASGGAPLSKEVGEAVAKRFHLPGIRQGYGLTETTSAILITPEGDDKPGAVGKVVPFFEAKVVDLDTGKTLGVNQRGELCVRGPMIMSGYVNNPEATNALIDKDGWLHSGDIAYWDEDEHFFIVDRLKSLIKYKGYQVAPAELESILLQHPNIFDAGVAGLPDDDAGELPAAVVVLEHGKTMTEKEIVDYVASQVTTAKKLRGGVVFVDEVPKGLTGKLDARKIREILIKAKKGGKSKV
Protocol: (§1) The enzyme activity of FLuc-N-HiBiT, FLuc-C-HiBiT, and FLuc-C-NLuc was measured similar to P. pyralis firefly luciferase (FLuc) as previously described. […] Compounds and controls were added to each plate as described in Supplementary Data 8 with a Hornet pintool system (Wako Automation). Compounds were incubated with respective enzymes for 30–60 min at room temperature protected from light and covered by solid metal lid to prevent evaporation. […] Luciferin was incubated with FLuc enzyme for 5 min before FLuc activity was then measured on a ViewLux CCD imager (PerkinElmer), with exposure times up to ten seconds with medium to high gain settings. Data were normalized to average no enzyme control as 100% enzyme inhibition and average DMSO neutral control. See Supplementary Table 4 for additional details.
(§2) Supplementary Table 4. Protocol for Firefly luciferase (FLuc) and NanoLuc (NLuc) enzymatic
(§3) Supplementary Table 4: Protocol for Firefly luciferase (FLuc) and NanoLuc (NLuc) enzym atic lum inescence assay
(§4) Firefly luciferase (FLuc) enzym atic lum inescence assay
(§5) Sequence Param eter Value Description
(§6) No enzym e control (colum n 1) and enzym e solution (1- 10 nM FLuc enzym e) in FLuc assay
(§7) 1 Reagent 4 µLbuffer; white/solid bottom , m edium bind, high base plates (Greiner), dispensed with BioRaptr
(§8) com pounds transferred to respective colum ns with Pintool
(§9) 2b Test Com pounds 23 nLconcentration range) in colum ns 5- 48; com pounds transferred to respective wells with
(§10) 3 Incubation 30 m in Incubate enzym e + com pounds at am bient tem p for 30 m in, protected from light
(§11) 4 Reagent 3 µLAdd 3 µL of D-luciferin substrate solution to each well (final concentration 10 µM); dispensed
(§12) 5 Detector ViewLux Read plate lum inescence (Exposure = 1- 10 sec; Gain = Medium -high; Speed = Slow;
(§13) Dispensing solution was diluted in 1X PBS, pH 7.4. […]

[2] = target: T1, FLuc-C-HiBiT (firefly luciferase); experiment: SDR assay, FLuc-C-HiBiT; conditions: for pSDR50, SDR (+ ATP) / pSDR50, SDR (-ATP) / EC50: FLuc-C-HiBiT qHTS; for Pearson r (SDR+ATP vs. E): correlation of SDR (+ATP) with the FLuc enzymatic assay (E); for Pearson r (SDR-ATP vs. E): correlation of SDR (-ATP) with the FLuc enzymatic assay (E); for % Activity (max response, + ATP) / % Activity (max response, - ATP): SDR max. response, clade S
P. pyralis FLuc = P. pyralis FLuc (Photinus pyralis, UniProt P08659); experiment: FLuc enzymatic luminescence assay, P. pyralis FLuc; type: biochemical; set-up: CC-v2: scale not given here; conditions: for Efficacy (%) FLuc E / IC50: FLuc enzymatic assay; for Efficacy (%) FLuc E: Clade S follow-up; for IC50: read-out: IC50 or SDR50 (mM) FLuc E; for AC50 / CC-v2 / Efficacy / Hill Coef / Inf Activity / Max Resp / Zero Activity: Sample Data Type FLuc-Km
Chain of P. pyralis FLuc (P08659 whole entry): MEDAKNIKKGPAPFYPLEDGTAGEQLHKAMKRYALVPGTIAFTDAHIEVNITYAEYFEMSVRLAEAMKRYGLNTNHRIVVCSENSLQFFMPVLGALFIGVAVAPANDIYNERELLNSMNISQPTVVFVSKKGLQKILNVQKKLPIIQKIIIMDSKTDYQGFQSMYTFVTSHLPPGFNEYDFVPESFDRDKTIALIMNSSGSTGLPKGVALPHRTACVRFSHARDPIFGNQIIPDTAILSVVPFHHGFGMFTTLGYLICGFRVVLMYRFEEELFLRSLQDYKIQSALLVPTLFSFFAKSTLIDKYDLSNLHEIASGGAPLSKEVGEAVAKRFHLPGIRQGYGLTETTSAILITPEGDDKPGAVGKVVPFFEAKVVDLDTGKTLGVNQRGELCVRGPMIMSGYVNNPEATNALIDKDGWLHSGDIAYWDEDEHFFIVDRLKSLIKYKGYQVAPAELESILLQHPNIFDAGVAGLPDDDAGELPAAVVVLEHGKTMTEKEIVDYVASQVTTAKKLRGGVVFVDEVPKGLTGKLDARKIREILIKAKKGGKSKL
Protocol: as §1
Assays were run in the presence (solid symbols) or absence
(open symbols) of 10 µM ATP. Corresponding SMIL E S for NC GC IDs and source data are provided in
Supplementary Data 3 and as a Source Data file. 10
as §2, §3, §4, §5, §6, §7, §8, §9, §10, §11, §12, §13

[3] = target: FLuc-C-NLuc (firefly luciferase) (Photinus pyralis, UniProt P08659, form not given/L550V); experiment: SDR assay, FLuc-C-NLuc; conditions: - ATP
Chain of FLuc-C-NLuc (firefly luciferase) (P08659 2-550 L550V, form open): as the sequence (P08659 2-550 L550V, form open) above

FLuc-C-HiBiT = target: T2, FLuc-C-HiBiT (Photinus pyralis, UniProt P08659); experiment: biochemical; conditions: enzyme activity, 10 uM ATP; read-out: IC50 or SDR50 (mM) / FLuc E
T2 construct: firefly luciferase with C-terminal HiBiT tag, E. coli expressed
T2 sequence (P08659 whole entry, looked up): as the sequence (P08659 whole entry) above

[4] = read-out: SDR50, SDR (+ ATP), SDR assay with ATP
[5] = read-out: SDR50, SDR (-ATP), SDR assay without ATP

SMILES | Efficacy (%) FLuc E (P. pyralis FLuc) | CC-v2 (P. pyralis FLuc) | Efficacy (P. pyralis FLuc) | Hill Coef (P. pyralis FLuc) | Inf Activity (P. pyralis FLuc) | Max Resp (P. pyralis FLuc) | Zero Activity (P. pyralis FLuc) | Efficacy (%) FLuc-C-NLuc SDR (-ATP) [3] | % Activity (max response, + ATP) [2] | % Activity (max response, - ATP) [2] | IC50 (FLuc-C-HiBiT) | further results
CCOc1ccc(/C=C/c2nc3ccccc3n2[S+](=O)([O-])c2cccc(Cl)c2)cc1 [NCGC00108246-01] | – | – | – | – | – | – | – | – | – | – | – | pIC50, FLuc E [1]: 6.405; IC50 [1]: 0.394 µM; pSDR50, SDR (+ ATP) ([2]; SDR assay with ATP): 5.605; pSDR50, SDR (-ATP) ([2]; SDR assay without ATP): 5.505; Pearson r (SDR+ATP vs. E) [2]: 0.892; Pearson r (SDR-ATP vs. E) [2]: 0.888; EC50 [2, 4]: 2.48 µM; EC50 [2, 5]: 3.13 µM
CSc1ccc(/C=C/c2nc3ccccc3n2[S+](=O)([O-])c2ccc(Br)cc2)cc1 [NCGC00108248-01] | – | – | – | – | – | – | – | – | – | – | – | pIC50, FLuc E [1]: 6.155; IC50 [1]: 0.7 µM; pSDR50, SDR (+ ATP) ([2]; SDR assay with ATP): 5.355; pSDR50, SDR (-ATP) ([2]; SDR assay without ATP): 5.105; Pearson r (SDR+ATP vs. E) [2]: 0.917; Pearson r (SDR-ATP vs. E) [2]: 0.903; EC50 [2, 4]: 4.42 µM; EC50 [2, 5]: 7.85 µM
CSc1ccc(/C=C/c2nc3ccccc3n2[S+](=O)([O-])c2cccc(Cl)c2)cc1 [NCGC00108250-01] | – | – | – | – | – | – | – | – | – | – | – | pIC50, FLuc E [1]: 6.255; IC50 [1]: 0.556 µM; pSDR50, SDR (+ ATP) ([2]; SDR assay with ATP): 5.705; pSDR50, SDR (-ATP) ([2]; SDR assay without ATP): 5.705; Pearson r (SDR+ATP vs. E) [2]: 0.941; Pearson r (SDR-ATP vs. E) [2]: 0.919; EC50 [2, 4]: 1.97 µM; EC50 [2, 5]: 1.97 µM
Cc1ccc(C2Cn3cnc(C(=O)N4CCC(C(=O)NCCC(C)C)CC4)c3CO2)cc1 (stereo not drawn) [NCGC00422121-01] | -26.32% | -2.4 | -26.32 | 1.21 | -27.95 | -21.63 | -1.63 | 0.00% | 49.59% | 0.00% | – | IC50 (P. pyralis FLuc): 0.0139 mM; AC50 (P. pyralis FLuc): 13.9 µM
CC(C)CCNC(=O)C1CCN(C(=O)c2ncn3c2COC(c2ccc(F)cc2)C3)CC1 (stereo not drawn) [NCGC00423180-01] | -22.97% | 4 | -22.97 | 2.25 | -22.47 | -18.73 | 0.50 | 0.00% | 35.19% | 0.00% | – | –
CCC(CC)NC(=O)C1CCN(C(=O)c2ncn3c2COC(c2ccc(F)cc2)C3)CC1 (stereo not drawn) [NCGC00430454-01] | -16.84% | 4 | -16.84 | 1.51 | -9.34 | -6.95 | 7.50 | 0.00% | 9.00% | 0.00% | – | –
CC(C)NC(=O)C1CCN(C(=O)c2ncn3c2COC(c2ccccc2)C3)CC1 (stereo not drawn) [NCGC00449767-01] | -88.78% | -1.1 | -88.78 | 1.10 | -90.78 | -86.46 | -2.01 | 0.00% | 350.87% | 0.00% | 3.51 µM | IC50 (P. pyralis FLuc): 0.00248 mM; AC50 (P. pyralis FLuc): 2.48 µM
O=C(Nc1cccc(-c2nc3ccccc3s2)c1)c1cc2ccccc2oc1=O [NCGC00688715-01] | – | – | – | – | – | – | – | – | – | – | > 30 µM | –
Cc1nonc1COc1ccc(C(=O)Nc2cccc(-c3nc4ccccc4s3)c2)cc1 [NCGC00688799-01] | – | – | – | – | – | – | – | – | – | – | 9.89 µM | –
CCOc1ccc(NC(=O)Nc2cccc(C(=O)O)c2)cc1 [NCGC00689880-01] | – | – | – | – | – | – | – | – | – | – | 0.00881 µM | –
CCC[C@H](C)Oc1nc(N)c2[nH]c(=O)n(CCCCCN3CCCCC3)c2n1 [NCGC00856659-01] | – | – | – | – | – | – | – | – | – | – | > 30 µM | –
CCCCOc1nc(N)c2[nH]c(=O)n(CCCN(CCCN3CCOCC3)Cc3cccc(CC(=O)OC)c3)c2n1 [NCGC00886690-01] | – | – | – | – | – | – | – | – | – | – | > 30 µM | –
O=C(O)c1cccc(-c2noc(-c3ccccc3F)n2)c1 [PTC124] | – | – | – | – | – | – | – | – | – | – | 0.00154 µM | –
